Reference: patent US20190231768A1, “P[…] TREATING DRUG INDUCED DYSKINESIAS” (PRILENIA THERAPEUTICS DEVELOPMENT LTD., priority 2017, published 2019)
Where two headings read alike, the source gives them in different places.

How the values were obtained:
D2R [1] = conditions: for % D2R occupancy: NHP, based on 11C-raclopride PET
From the text: NHP σ1R occupancy data are extrapolated from in vitro binding investigations with 3H-fluspidine, known and specific σ1R tracer, against human σ1R.

[2] = tested on: human subject afflicted with a DIMD; conditions: 45, 90, 135 or 180 mg/day oral, add-on
D2R [3] = target: D2R (Rattus norvegicus, UniProt P61169); conditions: cited from earlier work
D2R [4] = target: D2R (Homo sapiens, UniProt P14416); assay: in vivo; conditions: read-out: % D2R occupancy
[5] = tested on: patients with Huntington's Disease (HD); conditions: 45 mg twice daily (90 mg/day); cited from earlier work
6-OHDA-lesioned rat = conditions: 25 μmole/kg (8 mg/kg); cited from earlier work
sigma-1 receptor (S1R) = sigma-1 receptor (S1R) (Homo sapiens, UniProt Q99720)
From the text: (§1) The study consisted of a screening period of up to 8 weeks prior to first dosing of tracer, including a Ti three-dimensional magnetization-prepared rapid acquisition gradient echo (MPRAGE 3D) magnetic resonance imaging (MRI) scan (visit 1), a study period of up to 4 weeks (including visits 2 and 3), and a follow-up visit (visit 4). […] Each dose cohort comprised up to 4 subjects. Although every subject of each dose cohort was expected to receive the same dose, it was also possible to change the dose level within a cohort due to the adaptive design of the study.

[6] = target: dopamine-2 receptor (D2R) (Homo sapiens, UniProt P14416); conditions: 90 mg
From the text: as §1

[7] = tested on: MPTP-lesioned macaques with L-DOPA-induced dyskinesia
Experimental: The study was conducted in two separate experiments. […] Animals: Eight cynomolgus monkeys (Macaca fascicularis, 8-14 years of age, 3.0-4.8 kg, Suzhou Xishan-Zhongke Laboratory Animal Company, PRC) were used in this study. Fresh fruit, primate pellets and water were available ad libitum other than at times of overnight fasting (from 5 pm) prior to days of behavioral assessment. The housing rooms were subject to a 12-hour light-dark cycle (lights on 7 a.m.), 20-25° C. in a room containing only animals of the same sex.
MPTP administration and development of motor complications: Animals received once-daily subcutaneous injection of MPTP (0.2 mg/kg in 0.9% sterile-saline, Sigma-Aldrich, Oakville, ON, Canada) for 8-30 days. A parkinsonian syndrome was then allowed to develop over at least a 90-day period, during which time additional MPTP administrations were given as necessary, until animals reached moderate to marked levels of disability. […] MPTP lesions were allowed to stabilize for a minimum of a further 60-day prior to commencing induction of L-DOPA-induced motor complications. LID, including both choreiform and dystonic dyskinesia, were evoked by chronic L-DOPA treatment (25 mg/kg, Madopar™, Roche, L-DOPA: benserazide, ratio 4:1) for at least 4-months. During this same period animals were acclimatized to the experimental setting, trained to provide blood samples (while restrained in chair) and to receive administration of treatment by oral, intravenous or subcutaneous routes.
The response to this dose of L-DOPA was assessed to ensure stability and reproducibility within each animal on successive L-DOPA administrations.
For both studies, on the day before behavioral observations, food was removed overnight, from 5 p.m. On days of behavioral assessment, treatments were administered to the animals in their home cages. Animals were then transferred to an observation cage for behavioral assessment. […] The effects of treatments on parkinsonian disability, dyskinesia, duration and quality of anti-parkinsonian benefit (on-time) and activity were assessed and analyzed for a period of 6 hours (h).
Assessment of parkinsonian disability, dyskinesia (chorea and dystonia) and activity: Animals were transferred to individual observation cages (1.5×1.0×1.1 m) and their behavior recorded on HD-video. Rating scales for parkinsonism and dyskinesia adapted from their clinical counterparts (UPDRS pt. III and UDysRS respectively) were used to assess recordings via post-hoc analysis by a movement disorders neurologist blinded to treatment. […] Dyskinesia, representative of the maximum of either chorea or dystonia was scored as 0—absent, 1—mild, 2—moderate, 3—marked or 4—severe. Parkinsonian disability and dyskinesia were assessed for 5-min every 10-min, the score given being most representative of each 5-min observation period. Scores were summed for each hour for time-course analyses and across the entire observation period (0-6 h).
The duration of anti-parkinsonian action, on-time, was defined as the number of minutes for which the bradykinesia score was zero. In addition, the duration of on-time associated with dyskinesia of varying severity was calculated as follows. On-time with disabling dyskinesia, ‘bad’-on-time was calculated the number of minutes for which the bradykinesia score was zero while the dyskinesia score was greater than 2. Meanwhile, on-time without disabling dyskinesia, ‘good’-on-time represents the number of minutes for which the bradykinesia score is zero while the dyskinesia score is 2 or less.
Statistical analyses: Data derived from assessment of duration and quality of on-time were plotted as mean±s.e.m. […] Data for measures of parkinsonian disability and dyskinesia were graphed, where appropriate, as median scores alone (time course) or box and whisker plots (cumulated totals). Time course data for parkinsonian disability and dyskinesia were first ranked within each animal across all treatments using Excel's RANKAVG function. […]

[8] = study 2, 30 mg/kg, cumulated 0-2 h

Chain of sigma-1 receptor (S1R) (Q99720 whole entry): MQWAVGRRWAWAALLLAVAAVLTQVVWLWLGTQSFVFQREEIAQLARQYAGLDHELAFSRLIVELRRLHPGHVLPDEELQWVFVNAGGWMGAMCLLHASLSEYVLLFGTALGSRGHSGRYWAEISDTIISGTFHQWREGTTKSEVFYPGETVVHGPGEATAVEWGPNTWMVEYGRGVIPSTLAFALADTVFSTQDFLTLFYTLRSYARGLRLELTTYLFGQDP
Chain of D2R (Homo sapiens, UniProt P14416) (P14416 whole entry): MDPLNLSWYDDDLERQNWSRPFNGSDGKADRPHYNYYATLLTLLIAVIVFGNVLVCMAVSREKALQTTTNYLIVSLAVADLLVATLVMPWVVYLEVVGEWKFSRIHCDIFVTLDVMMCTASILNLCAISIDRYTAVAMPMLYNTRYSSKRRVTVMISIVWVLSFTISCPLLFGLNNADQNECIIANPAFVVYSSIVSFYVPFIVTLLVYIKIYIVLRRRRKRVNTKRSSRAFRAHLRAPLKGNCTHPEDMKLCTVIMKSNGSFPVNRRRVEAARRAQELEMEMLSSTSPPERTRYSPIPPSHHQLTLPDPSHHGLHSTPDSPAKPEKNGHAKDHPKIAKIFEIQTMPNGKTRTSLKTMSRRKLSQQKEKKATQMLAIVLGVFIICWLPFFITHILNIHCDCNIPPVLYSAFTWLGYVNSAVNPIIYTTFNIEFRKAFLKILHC
Chain of D2R (Rattus norvegicus, UniProt P61169) (P61169 whole entry): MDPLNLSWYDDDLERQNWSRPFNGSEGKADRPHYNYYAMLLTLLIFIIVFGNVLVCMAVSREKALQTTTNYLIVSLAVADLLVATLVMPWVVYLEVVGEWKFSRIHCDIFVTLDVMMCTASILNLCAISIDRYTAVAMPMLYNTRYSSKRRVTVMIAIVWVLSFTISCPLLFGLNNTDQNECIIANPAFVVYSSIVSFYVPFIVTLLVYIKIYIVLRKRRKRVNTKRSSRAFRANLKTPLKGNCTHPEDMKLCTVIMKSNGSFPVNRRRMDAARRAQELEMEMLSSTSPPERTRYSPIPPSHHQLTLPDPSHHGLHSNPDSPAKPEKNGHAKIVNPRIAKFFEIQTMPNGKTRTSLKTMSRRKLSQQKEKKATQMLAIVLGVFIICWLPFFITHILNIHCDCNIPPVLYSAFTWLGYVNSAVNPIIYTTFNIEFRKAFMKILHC
Chain of dopamine-2 receptor (D2R) (P14416 whole entry): as the sequence (P14416 whole entry) above

receptor occupancy at 45 mg (D2R [4]): ~3%
receptor occupancy at 90 mg (D2R [4]): ~30%
receptor occupancy at 150 mg (D2R [4]): > 40%
difference in drug-induced S1R occupancy between HV and HD patients (sigma-1 receptor (S1R); 90 mg): no differences
S1R occupancy (sigma-1 receptor (S1R); healthy volunteers, single oral dose 45 mg, 2 h after dosing): ~100%
S1R occupancy (sigma-1 receptor (S1R); healthy volunteers, single oral dose 90 mg, 2 h after dosing): ~100%
S1R occupancy (sigma-1 receptor (S1R); single oral dose 1 mg): approximately 40%
D2R blockage [6]: 3%
SMILES: CCCN1CCC(c2cccc(S(C)(=O)=O)c2)CC1 [pridopidine, 4-(3-(methylsulfonyl)phenyl)-1-propylpiperidine]
% D2R occupancy (D2R [1]; 7 mg/kg PO): <15%
% D2R occupancy (D2R [1]; 15 mg/kg PO): 15%
% D2R occupancy (D2R [1]; 20 mg/kg PO): 25%
% D2R occupancy (D2R [1]; 30 mg/kg PO): 40%
occupancy of low affinity dopamine receptors (expected) (D2R [1]; high, effective dose (30 mg/kg, or 20 mg/kg in study 1)): about 40%
occupancy of low affinity dopamine receptors (expected) (D2R [1]; low, ineffective doses (7 and 15 mg/kg (study 1), 20 mg/kg in study 2)): about 10%
D2R-occupancy (D2R [1]; macaques, effective doses (20 to 30 mg/kg)): 25-40%
symptoms of DIMD [2]: effective (provides at least an additive effect or more than an additive effect)
% D2R occupancy (D2R [3]; 3 mg/kg PO): 0%
% D2R occupancy (D2R [3]; 15 mg/kg PO): 0%
motor function, UHDRS Total Motor Score (TMS) [5]: significantly improved motor function
L-DOPA-induced sensitization of contraversive-rotation (6-OHDA-lesioned rat): decreased
anti-parkinsonian benefit of L-DOPA (6-OHDA-lesioned rat): no decrease
Dyskinesia (time course), significance cf. LDh-vehicle ([7]; 20 mg/kg + LDh, hr 1): * (*/**/*** represents P < 0.05, P < 0.01 or P < 0.001 cf. vehicle-treatment)
L-DOPA induced Dystonia (time course), significance cf. LDh-vehicle ([7]; 20 mg/kg + LDh, hr 1): * (*/**/*** represents P < 0.05, P < 0.01 or P < 0.001 cf. vehicle-treatment)
Dyskinesia (time course), significance cf. LDh-vehicle ([7]; 30 mg/kg + LDh, hr 1): ** (*/**/*** represents P < 0.05, P < 0.01 or P < 0.001 cf. vehicle-treatment)
L-DOPA induced Dystonia (time course), significance cf. LDh-vehicle ([7]; 30 mg/kg + LDh, hr 1): ** (*/**/*** represents P < 0.05, P < 0.01 or P < 0.001 cf. vehicle-treatment)
Dyskinesia (time course), significance cf. LDh-vehicle ([7]; 30 mg/kg + LDh, hr 2): *** (*/**/*** represents P < 0.05, P < 0.01 or P < 0.001 cf. vehicle-treatment)
L-DOPA induced Dystonia (time course), significance cf. LDh-vehicle ([7]; 30 mg/kg + LDh, hr 2): *** (*/**/*** represents P < 0.05, P < 0.01 or P < 0.001 cf. vehicle-treatment)
L-DOPA induced Dystonia (time course), significance cf. LDh-vehicle ([7]; 30 mg/kg + LDh, hr 3): * (*/**/*** represents P < 0.05, P < 0.01 or P < 0.001 cf. vehicle-treatment)
LID ([7]; MPTP-lesioned NHPs, high-dose): significant and meaningful decrease
LID ([7]; PD NHP model, low doses): ineffective
total duration of on-time or extent of anti-parkinsonian benefit of L-DOPA ([7]; study 1): absence of any change
anti-parkinsonian benefit afforded by L-DOPA ([7]; study 1, 7 mg/kg, first two hours of observation): modest decrease
total duration of on-time ([7]; study 2, 0-6 h): no change
median level of dyskinesia ([7]; study 2, 20 mg/kg, first hour): between moderate and marked
median level of dystonia ([7]; study 2, 20 mg/kg, first hour): between moderate and marked
'bad' quality on-time ([7]; study 2, 30 mg/kg): 66 min
decrease in 'bad' quality on-time compared to vehicle ([7]; study 2, 30 mg/kg): 60%
median level of dyskinesia [7, 8]: below mild (non-disabling)
median level of dystonia [7, 8]: below mild (non-disabling)
reduction of median levels of dyskinesia compared to LDh-vehicle [7, 8]: 71%
reduction of median levels of dystonia compared to LDh-vehicle [7, 8]: 72%
median level of dyskinesia ([7]; study 2, 30 mg/kg, first and second hours): mild to moderate
median level of dystonia ([7]; study 2, 30 mg/kg, first to third hours): mild to moderate
proportion of on-time of 'good' quality cf. LDh-vehicle ([7]; study 2, any dose): no difference
